Assays:
[1] = molecular target: Estrogen receptor (Homo sapiens) (UniProt Q92731+P03372); assay: Inhibition of estrogen receptor at 10 uM; assay type: protein assay
[2] = molecular target: T1, Androgen receptor (Homo sapiens) (UniProt P10275); assay: Inhibition of testosterone receptor at 1 nM
T1 sequence (whole entry): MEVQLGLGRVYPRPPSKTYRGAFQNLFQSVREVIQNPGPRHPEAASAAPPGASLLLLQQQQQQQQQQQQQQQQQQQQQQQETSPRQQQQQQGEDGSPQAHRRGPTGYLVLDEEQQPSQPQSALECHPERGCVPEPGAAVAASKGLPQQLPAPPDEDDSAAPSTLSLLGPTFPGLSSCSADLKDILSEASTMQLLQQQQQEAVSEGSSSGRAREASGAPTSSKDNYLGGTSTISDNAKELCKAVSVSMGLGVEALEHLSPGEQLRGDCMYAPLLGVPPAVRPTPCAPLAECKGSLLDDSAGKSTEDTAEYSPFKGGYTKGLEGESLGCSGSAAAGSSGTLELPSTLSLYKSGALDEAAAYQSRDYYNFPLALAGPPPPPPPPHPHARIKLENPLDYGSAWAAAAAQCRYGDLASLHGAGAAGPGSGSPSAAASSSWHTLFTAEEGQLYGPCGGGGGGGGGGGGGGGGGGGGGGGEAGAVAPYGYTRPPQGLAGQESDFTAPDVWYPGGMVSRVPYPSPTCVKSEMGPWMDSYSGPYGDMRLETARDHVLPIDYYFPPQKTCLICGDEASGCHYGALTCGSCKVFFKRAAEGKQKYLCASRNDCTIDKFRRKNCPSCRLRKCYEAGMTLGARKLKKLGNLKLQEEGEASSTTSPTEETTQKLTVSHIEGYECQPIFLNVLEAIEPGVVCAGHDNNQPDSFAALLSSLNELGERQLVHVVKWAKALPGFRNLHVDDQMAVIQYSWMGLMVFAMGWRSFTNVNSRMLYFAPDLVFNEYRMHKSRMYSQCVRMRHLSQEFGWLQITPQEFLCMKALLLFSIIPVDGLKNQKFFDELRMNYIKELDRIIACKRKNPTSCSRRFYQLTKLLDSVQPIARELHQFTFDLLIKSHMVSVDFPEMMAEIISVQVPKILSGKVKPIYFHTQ

[3] = molecular target: L-type calcium channel, dihydropyridine site (Homo sapiens, UniProt O60840+Q01668+Q13698+Q13936); assay: Inhibitory activity at dihydropyridine site of Calcium channel L type at 100 nM; assay type: protein assay
[4] = molecular target: T2, Glutamate [NMDA] receptor (Homo sapiens) (UniProt Q05586+Q12879+Q13224+O15399+O60391+Q14957+Q8TCU5); assay: Inhibition of MK-801 site of glutamate receptor at 100 nM; assay type: protein-complex assay
[5] = molecular target: T2, Glutamate [NMDA] receptor (Homo sapiens); assay: Inhibition of MK-801 site of glutamate receptor at 10 uM; assay type: protein-complex assay
[6] = organism: Homo sapiens; assay: Inhibition of inositol triphosphate IP3 at 100 nM; assay type: functional
[7] = molecular target: Epidermal growth factor receptor (Homo sapiens) (UniProt P00533); assay: Inhibition of EGFR at 1 nM
Sequence of Epidermal growth factor receptor (Homo sapiens) (P00533 whole entry): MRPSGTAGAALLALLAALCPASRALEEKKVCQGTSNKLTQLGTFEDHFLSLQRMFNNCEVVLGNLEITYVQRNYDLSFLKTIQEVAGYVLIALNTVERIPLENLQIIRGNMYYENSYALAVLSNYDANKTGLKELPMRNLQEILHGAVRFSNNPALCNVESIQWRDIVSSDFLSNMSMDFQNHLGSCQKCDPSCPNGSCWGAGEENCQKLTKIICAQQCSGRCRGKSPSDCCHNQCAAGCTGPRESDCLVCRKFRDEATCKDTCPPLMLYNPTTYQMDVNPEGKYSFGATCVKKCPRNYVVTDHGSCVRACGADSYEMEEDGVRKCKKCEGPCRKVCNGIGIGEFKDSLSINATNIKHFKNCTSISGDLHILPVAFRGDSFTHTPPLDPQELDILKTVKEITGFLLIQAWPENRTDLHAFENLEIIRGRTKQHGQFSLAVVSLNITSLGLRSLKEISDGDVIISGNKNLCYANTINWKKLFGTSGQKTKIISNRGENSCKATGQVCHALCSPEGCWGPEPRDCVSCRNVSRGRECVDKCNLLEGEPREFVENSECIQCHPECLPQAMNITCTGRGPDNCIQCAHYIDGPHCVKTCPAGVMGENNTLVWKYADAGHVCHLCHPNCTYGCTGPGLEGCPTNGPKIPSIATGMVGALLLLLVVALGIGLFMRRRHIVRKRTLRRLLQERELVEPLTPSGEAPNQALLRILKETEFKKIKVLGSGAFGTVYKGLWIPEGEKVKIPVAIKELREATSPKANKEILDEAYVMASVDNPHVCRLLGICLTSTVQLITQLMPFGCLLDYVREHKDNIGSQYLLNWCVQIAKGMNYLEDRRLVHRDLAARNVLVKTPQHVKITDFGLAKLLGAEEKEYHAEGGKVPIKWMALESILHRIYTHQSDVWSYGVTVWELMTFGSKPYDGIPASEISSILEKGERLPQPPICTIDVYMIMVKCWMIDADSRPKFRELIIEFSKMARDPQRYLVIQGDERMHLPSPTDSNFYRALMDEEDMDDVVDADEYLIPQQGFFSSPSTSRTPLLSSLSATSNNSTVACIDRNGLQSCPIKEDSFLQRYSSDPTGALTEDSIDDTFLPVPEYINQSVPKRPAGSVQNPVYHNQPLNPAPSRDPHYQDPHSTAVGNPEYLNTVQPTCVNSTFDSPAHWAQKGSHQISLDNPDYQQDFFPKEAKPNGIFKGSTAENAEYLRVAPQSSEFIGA

[8] = molecular target: T3, Endothelin-1 receptor (Homo sapiens) (UniProt P25101); assay: Inhibition of human recombinant endothelin 1 receptor 1 nM
T3 sequence (whole entry): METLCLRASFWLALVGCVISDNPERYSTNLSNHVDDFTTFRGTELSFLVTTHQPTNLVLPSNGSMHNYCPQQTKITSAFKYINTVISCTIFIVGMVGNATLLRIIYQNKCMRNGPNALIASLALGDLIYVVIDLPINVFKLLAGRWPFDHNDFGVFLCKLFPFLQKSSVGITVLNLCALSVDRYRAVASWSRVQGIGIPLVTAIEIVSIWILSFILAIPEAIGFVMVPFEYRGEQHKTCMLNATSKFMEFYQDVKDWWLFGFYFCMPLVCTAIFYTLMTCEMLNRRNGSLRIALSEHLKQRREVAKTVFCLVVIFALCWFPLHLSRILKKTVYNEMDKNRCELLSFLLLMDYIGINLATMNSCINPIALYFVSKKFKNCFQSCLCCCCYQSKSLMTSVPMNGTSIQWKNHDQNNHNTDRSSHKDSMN

[9] = Inhibition of non selective binding to VIP at 100 nM
[10] = molecular target: Sigma non-opioid intracellular receptor 1 (Homo sapiens) (UniProt Q99720); assay: Inhibition of non selective binding to sigma receptor at 100 nM
Sequence of Sigma non-opioid intracellular receptor 1 (Homo sapiens) (Q99720 whole entry): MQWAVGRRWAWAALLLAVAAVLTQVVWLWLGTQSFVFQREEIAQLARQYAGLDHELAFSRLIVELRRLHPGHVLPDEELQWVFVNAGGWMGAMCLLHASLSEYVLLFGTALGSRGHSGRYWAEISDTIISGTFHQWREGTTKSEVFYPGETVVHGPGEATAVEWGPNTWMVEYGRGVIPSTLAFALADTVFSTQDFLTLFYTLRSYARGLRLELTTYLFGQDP

[11] = molecular target: 5-hydroxytryptamine receptor 1D (Homo sapiens, UniProt P28221); assay: Inhibitory activity against 5HT1D receptor
Sequence of 5-hydroxytryptamine receptor 1D (P28221 whole entry): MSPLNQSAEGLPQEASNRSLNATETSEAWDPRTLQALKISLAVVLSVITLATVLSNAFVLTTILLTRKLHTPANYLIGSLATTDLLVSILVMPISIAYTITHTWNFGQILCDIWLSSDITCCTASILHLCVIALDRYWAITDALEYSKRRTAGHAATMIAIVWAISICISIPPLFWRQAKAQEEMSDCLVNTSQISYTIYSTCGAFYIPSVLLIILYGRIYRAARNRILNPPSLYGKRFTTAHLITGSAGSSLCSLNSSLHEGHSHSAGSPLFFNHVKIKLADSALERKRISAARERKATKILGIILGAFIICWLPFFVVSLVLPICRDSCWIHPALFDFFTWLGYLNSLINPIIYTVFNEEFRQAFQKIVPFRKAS

[12] = molecular target: 5-hydroxytryptamine receptor 6 (Homo sapiens, UniProt P50406); assay: Inhibitory activity against 5HT6 receptor
Sequence of 5-hydroxytryptamine receptor 6 (P50406 whole entry): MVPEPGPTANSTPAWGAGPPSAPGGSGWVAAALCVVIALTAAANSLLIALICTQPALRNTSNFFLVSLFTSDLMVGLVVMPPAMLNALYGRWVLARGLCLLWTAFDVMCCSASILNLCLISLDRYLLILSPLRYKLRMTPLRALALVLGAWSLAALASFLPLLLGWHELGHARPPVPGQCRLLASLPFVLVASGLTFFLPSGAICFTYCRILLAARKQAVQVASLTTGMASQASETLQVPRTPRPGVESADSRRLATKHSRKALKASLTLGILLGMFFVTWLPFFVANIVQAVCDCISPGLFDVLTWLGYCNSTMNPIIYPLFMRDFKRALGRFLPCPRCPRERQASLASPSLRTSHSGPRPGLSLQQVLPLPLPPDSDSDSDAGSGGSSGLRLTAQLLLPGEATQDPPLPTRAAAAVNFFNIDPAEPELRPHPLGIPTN

[13] = molecular target: T4, Alpha-2A adrenergic receptor (Homo sapiens, UniProt P08913); assay: Displacement of [3H]clonidine from cloned human adrenergic alpha2A receptor expressed in Sf9 cells
T4 sequence (P08913 whole entry): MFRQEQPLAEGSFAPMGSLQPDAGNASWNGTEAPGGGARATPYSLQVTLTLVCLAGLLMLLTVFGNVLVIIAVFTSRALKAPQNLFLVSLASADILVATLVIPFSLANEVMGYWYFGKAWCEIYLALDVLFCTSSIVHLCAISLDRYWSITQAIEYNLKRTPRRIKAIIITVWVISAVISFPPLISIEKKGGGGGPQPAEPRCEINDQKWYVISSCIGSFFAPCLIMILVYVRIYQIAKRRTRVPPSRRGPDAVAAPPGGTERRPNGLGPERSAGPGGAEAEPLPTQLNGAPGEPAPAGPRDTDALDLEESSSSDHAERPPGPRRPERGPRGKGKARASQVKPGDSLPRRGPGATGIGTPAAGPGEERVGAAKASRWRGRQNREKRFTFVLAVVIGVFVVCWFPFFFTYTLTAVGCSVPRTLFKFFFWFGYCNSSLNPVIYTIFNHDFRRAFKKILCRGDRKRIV

[14] = molecular target: Sodium-dependent serotonin transporter (Homo sapiens, UniProt P31645); assay: Inhibitory activity against SERT
Sequence of Sodium-dependent serotonin transporter (P31645 whole entry): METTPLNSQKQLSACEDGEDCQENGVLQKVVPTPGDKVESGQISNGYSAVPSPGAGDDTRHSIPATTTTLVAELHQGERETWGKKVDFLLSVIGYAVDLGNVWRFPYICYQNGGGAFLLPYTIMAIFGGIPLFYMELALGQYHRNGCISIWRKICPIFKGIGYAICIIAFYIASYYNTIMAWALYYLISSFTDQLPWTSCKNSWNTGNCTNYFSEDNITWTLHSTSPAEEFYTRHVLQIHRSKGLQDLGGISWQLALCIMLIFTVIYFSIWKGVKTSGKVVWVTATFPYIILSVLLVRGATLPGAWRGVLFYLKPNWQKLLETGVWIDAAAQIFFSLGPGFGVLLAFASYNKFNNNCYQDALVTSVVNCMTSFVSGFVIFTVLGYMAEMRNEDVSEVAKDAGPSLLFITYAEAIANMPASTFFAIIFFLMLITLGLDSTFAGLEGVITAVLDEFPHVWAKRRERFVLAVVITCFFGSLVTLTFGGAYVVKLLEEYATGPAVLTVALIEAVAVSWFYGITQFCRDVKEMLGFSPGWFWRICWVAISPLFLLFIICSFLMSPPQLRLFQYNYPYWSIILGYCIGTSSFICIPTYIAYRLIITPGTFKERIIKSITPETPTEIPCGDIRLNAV

[15] = molecular target: T5, Dopamine receptor (Homo sapiens) (UniProt P14416+P35462+P21918+P21917+P21728); assay: Inhibition of non selective binding to dopamine receptor at 100 nM; assay type: protein assay
[16] = molecular target: T5, Dopamine receptor (Homo sapiens); assay: Inhibition of non selective binding to dopamine receptor at 10 uM; assay type: protein assay
[17] = molecular target: GABA-A receptor; agonist GABA site (Homo sapiens) (UniProt P14867+P47870+P28472+P48169+P34903+P18505+P47869+P31644+Q16445); assay: Inhibition of agonist site of GABAA receptor at 1 nM; assay type: functional

For C[C@H](N)Cn1ncc2ccc(O)cc21, the inhibition [1] was 17.7%, the inhibition [2] was 0.47% and the inhibition at 0.1 µM [3] was 12%. It also gave an inhibition [4] of 11.4%, an inhibition [5] of 15.1% and an inhibition [6] of 8.56%. It also gave an inhibition [7] of 1.44%, an inhibition [8] of 2.41% and an inhibition [9] of 5.41%. The inhibition [10] was 0.17%, the Ki [11] was 7.87 µM and the Ki [12] was > 10 µM. For the same molecule, the Ki [13] was 2.27 µM, the Ki [14] was > 10 µM and the inhibition [15] was 18.1%. For the same molecule, the inhibition [16] was 51.2% and the inhibition [17] was 15.2%.

Reference: ChEMBL document CHEMBL1148572, “1-((S)-2-aminopropyl)-1H-indazol-6-ol: a potent peripherally acting 5-HT2 receptor agonist with ocular hypotensive activity” (J Med Chem, 2006)
